Source: ChEMBL document CHEMBL3774333, “Identification of SNAIL1 Peptide-Based Irreversible Lysine-Specific Demethylase 1-Selective Inactivators” (J Med Chem, 2016)
pIC50: −log10 of the molar value. Calls of active or inactive are those of the source. The rule behind the calls is not given here.

Assays:
[1] = test system: HeLa; test: Antiproliferative activity against human HeLa cells assessed as inhibition of cell viability at 12.5 to 100 uM treated for 24 hrs measured after 48 hrs by alamar blue assay in absence of fetal bovine serum; type: functional, cell-based
[2] = biological target: T1, Lysine-specific histone demethylase 1A (Homo sapiens, UniProt O60341); test: Inhibition of LSD1 in human HeLa cells assessed as H3K4me2/H3 ratio at 20 uM after 24 hrs by Western blot analysis in absence of fetal bovine serum; type: cell-based
[3] = organism: Homo sapiens
[4] = biological target: T2, Amine oxidase [flavin-containing] B (Homo sapiens, UniProt P27338); test: biochemical
T2 sequence (P27338 whole entry): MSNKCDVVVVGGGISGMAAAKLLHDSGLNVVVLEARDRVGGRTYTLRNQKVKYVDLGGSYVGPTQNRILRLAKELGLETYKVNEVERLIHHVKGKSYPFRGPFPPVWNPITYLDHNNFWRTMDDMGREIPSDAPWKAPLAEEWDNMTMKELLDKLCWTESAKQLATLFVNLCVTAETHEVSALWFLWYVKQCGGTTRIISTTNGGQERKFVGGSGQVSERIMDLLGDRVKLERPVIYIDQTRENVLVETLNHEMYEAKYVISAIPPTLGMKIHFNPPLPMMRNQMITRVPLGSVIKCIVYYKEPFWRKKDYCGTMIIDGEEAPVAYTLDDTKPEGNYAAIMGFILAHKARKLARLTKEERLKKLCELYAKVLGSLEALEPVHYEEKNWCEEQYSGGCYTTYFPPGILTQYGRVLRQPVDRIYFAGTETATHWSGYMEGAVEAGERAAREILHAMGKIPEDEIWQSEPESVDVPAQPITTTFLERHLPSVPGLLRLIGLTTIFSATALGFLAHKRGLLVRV
Description: Inhibition of human recombinant MAO-B expressed in baculovirus infected BTI insect cells using (4S)-4,5-dihydro-2-(6-hydroxybenzothiazolyl)-4-thiazolecarboxylic acid as substrate incubated for 60 mins by MAO-Glo assay

[5] = biological target: T3, Lysine-specific demethylase 5A (Homo sapiens, UniProt P29375); test: Inhibition of JARID1A in human HeLa cells assessed as H3K4me3/H3 ratio at 10 uM after 24 hrs by Western blot analysis in absence of fetal bovine serum; type: cell-based
[6] = biological target: T1, Lysine-specific histone demethylase 1A; settings: 22 h
Description: Drug metabolism assessed as LSD1 (unknown origin)-mediated compound-FAD adduct formation after 22 hrs by MALDI-TOF mass spectrometric analysis

[7] = biological target: T1, Lysine-specific histone demethylase 1A; test: Inhibition of LSD1 in human HeLa cells assessed as H3K4me2/H3 ratio at 5 uM after 24 hrs by Western blot analysis in absence of fetal bovine serum; type: cell-based
[8] = biological target: T4, Lysine-specific histone demethylase 2 (Homo sapiens) (UniProt Q8NB78); test: Inhibition of LSD2 in human HeLa cells assessed as H3K4me1/H3 ratio at 20 uM after 24 hrs by Western blot analysis in absence of fetal bovine serum; type: cell-based
T4 sequence (whole entry): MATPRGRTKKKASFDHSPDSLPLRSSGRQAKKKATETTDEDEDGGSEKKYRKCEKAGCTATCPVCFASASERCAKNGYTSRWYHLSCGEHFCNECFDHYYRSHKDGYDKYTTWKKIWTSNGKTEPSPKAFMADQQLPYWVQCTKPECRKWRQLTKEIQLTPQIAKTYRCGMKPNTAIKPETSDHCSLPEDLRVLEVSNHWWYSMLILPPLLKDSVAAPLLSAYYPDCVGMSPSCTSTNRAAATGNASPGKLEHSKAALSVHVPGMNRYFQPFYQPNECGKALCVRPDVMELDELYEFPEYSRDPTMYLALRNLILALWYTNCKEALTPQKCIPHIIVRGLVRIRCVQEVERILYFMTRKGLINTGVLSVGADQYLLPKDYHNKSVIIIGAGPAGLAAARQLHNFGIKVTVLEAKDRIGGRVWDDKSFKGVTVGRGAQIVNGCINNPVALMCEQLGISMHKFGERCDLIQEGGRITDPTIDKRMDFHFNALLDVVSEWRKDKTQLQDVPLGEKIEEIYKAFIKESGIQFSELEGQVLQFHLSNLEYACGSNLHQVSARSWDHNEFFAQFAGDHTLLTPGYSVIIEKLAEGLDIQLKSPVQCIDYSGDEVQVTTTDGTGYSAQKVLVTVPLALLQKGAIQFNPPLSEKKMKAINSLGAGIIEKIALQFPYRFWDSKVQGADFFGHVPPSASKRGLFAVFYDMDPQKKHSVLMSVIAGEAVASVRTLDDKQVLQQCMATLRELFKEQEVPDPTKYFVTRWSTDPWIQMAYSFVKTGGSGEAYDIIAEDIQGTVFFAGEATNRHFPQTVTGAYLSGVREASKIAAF

[9] = biological target: T1, Lysine-specific histone demethylase 1A; test: Inhibition of LSD1 in human HeLa cells assessed as increase in H3K4me2 level after 24 hrs by Western blot analysis in absence of fetal bovine serum; type: cell-based
[10] = biological target: T5, Lysine-specific histone demethylase 2 (Homo sapiens, UniProt Q8NB78); test: biochemical
T5 sequence (Q8NB78 whole entry): T4 sequence (whole entry)
Description: Inhibition of full length N-terminal His-tagged human LSD2 (1 to 822 residues) expressed in Escherichia coli BL21(DE3) cells using H3K4me2 peptide substrate by MALDI-TOF mass spectrometric analysis

[11] = organism: Homo sapiens; remark: listed apart in the source
[12] = biological target: T4, Lysine-specific histone demethylase 2 (Homo sapiens); test: Inhibition of LSD2 in human HeLa cells assessed as H3K4me1/H3 ratio at 5 uM after 24 hrs by Western blot analysis in absence of fetal bovine serum; type: cell-based
[13] = biological target: T1, Lysine-specific histone demethylase 1A; test: biochemical
Description: Inhibition of full length N-terminal His-tagged human recombinant LSD1 (1 to 852 residues) expressed in Escherichia coli BL21(DE3) cells using H3K4me2 peptide as substrate preincubated for 5 mins followed by substrate addition measured for 30 mins by peroxidase coupled assay

[14] = biological target: T3, Lysine-specific demethylase 5A
Description: Inhibition of JARID1A (unknown origin) using H3K4me3 peptide substrate preincubated for 5 mins followed by substrate addition by MALDI-TOF mass spectrometric analysis

[15] = biological target: T4, Lysine-specific histone demethylase 2 (Homo sapiens); test: Inhibition of LSD2 in human HeLa cells assessed as H3K4me1/H3 ratio at 10 uM after 24 hrs by Western blot analysis in absence of fetal bovine serum; type: cell-based
[16] = organism: Homo sapiens; remark: listed apart in the source
[17] = biological target: T6, Amine oxidase [flavin-containing] A (Homo sapiens, UniProt P21397); test: biochemical
T6 sequence (P21397 whole entry): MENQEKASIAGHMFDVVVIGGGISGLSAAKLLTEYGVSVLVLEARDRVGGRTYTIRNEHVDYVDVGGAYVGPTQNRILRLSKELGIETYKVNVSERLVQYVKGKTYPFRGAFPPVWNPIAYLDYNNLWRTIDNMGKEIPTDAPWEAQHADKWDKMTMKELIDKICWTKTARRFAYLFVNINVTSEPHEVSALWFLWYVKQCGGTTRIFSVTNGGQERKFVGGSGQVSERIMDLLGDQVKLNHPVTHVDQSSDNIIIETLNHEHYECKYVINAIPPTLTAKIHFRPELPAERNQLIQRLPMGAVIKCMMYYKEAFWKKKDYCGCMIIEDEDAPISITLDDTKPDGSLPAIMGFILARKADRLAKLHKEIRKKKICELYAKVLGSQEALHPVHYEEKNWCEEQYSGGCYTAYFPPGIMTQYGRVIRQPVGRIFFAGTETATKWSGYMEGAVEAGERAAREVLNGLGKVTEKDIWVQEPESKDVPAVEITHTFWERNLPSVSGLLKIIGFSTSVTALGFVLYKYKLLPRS
Description: Inhibition of human recombinant MAO-A expressed in baculovirus infected BTI insect cells using (4S)-4,5-dihydro-2-(6-hydroxybenzothiazolyl)-4-thiazolecarboxylic acid as substrate incubated for 60 mins by MAO-Glo assay

[18] = biological target: T3, Lysine-specific demethylase 5A; test: Inhibition of JARID1A in human HeLa cells assessed as H3K4me3/H3 ratio at 20 uM after 24 hrs by Western blot analysis in absence of fetal bovine serum; type: cell-based
[19] = biological target: T3, Lysine-specific demethylase 5A; test: Inhibition of JARID1A in human HeLa cells assessed as H3K4me3/H3 ratio at 5 uM after 24 hrs by Western blot analysis in absence of fetal bovine serum; type: cell-based
[20] = biological target: T1, Lysine-specific histone demethylase 1A; test: Inhibition of LSD1 in human HeLa cells assessed as H3K4me2/H3 ratio at 10 uM after 24 hrs by Western blot analysis in absence of fetal bovine serum; type: cell-based
[21] = organism: Homo sapiens; remark: listed apart in the source

T3 sequence (P29375 whole entry): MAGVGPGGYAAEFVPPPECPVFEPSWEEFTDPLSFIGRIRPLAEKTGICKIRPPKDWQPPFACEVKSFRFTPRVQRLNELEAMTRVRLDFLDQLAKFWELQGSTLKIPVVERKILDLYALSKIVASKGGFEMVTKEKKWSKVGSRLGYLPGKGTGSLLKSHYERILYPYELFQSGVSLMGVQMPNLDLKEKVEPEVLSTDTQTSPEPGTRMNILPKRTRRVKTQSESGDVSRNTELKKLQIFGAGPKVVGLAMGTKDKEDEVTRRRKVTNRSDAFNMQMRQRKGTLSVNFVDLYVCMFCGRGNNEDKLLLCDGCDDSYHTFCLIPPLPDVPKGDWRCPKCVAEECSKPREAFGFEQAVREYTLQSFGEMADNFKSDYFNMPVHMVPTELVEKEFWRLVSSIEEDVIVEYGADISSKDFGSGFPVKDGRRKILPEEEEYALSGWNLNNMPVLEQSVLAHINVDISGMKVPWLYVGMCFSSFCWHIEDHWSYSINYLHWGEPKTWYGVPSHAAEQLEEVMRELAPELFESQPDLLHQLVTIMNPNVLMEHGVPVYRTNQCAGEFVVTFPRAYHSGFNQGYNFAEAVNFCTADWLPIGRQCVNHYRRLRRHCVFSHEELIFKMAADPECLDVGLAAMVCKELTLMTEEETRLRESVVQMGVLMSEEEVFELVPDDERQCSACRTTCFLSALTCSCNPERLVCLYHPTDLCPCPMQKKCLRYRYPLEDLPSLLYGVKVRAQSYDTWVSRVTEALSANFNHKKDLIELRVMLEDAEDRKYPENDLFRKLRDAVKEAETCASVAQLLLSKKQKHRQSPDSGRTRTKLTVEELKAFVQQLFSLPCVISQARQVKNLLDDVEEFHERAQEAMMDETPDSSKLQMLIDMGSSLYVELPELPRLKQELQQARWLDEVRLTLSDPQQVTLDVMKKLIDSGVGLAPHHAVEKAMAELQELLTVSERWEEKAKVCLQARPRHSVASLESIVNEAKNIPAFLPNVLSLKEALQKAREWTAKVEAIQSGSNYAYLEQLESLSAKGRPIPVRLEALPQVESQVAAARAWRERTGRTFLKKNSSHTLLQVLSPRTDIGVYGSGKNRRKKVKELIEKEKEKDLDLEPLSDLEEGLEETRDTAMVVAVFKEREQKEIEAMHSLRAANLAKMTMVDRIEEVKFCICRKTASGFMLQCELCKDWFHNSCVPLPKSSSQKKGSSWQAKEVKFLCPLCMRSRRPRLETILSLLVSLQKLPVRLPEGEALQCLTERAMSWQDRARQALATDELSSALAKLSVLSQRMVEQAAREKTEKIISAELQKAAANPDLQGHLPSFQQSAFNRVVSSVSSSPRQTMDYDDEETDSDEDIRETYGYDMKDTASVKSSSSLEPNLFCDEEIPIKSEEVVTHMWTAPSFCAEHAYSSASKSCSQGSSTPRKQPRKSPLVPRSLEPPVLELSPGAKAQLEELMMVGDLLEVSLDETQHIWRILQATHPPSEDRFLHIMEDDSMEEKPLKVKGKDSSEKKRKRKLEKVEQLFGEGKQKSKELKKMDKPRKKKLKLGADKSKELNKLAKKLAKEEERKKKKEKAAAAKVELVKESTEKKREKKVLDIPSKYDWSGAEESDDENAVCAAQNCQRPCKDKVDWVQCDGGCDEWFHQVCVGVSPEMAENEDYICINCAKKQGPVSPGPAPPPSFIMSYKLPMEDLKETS

SMILES	Ratio [2]	pIC50 [4]	Drug metabolism [6]	pIC50 [10]	pIC50 [13]	pIC50 [14]	pIC50 [17]	inhibition [1]	Ratio IC50 [3]	Ratio IC50 [11]	Ratio IC50 [16]	Ratio IC50 [21]	other results
C#CCN(CCC[C@H](NC(=O)[C@H](CO)NC(=O)[C@H](CCCNC(=N)N)NC(=O)[C@@H]1CCCN1)C(=O)N[C@@H](CC(C)C)C(=O)N[C@H](C(=O)N[C@@H](CCCNC(=N)N)C(=O)N[C@@H](CCCCN)C(=O)N1CCC[C@H]1C(=O)N[C@@H](CO)C(=O)N[C@@H](CC(=O)O)C(=O)N1CCC[C@H]1C(=O)N[C@@H](CC(N)=O)C(=O)N[C@@H](CCCNC(=N)N)C(=O)N[C@@H](CCCCN)C(=O)N1CCC[C@H]1C(=O)N[C@@H](CC(N)=O)C(=O)N[C@@H](Cc1ccc(O)cc1)C(=O)N[C@@H](CO)C(=O)N[C@@H](CCC(N)=O)C(N)=O)C(C)C)Cc1ccccc1					4.40								
CC(C)C[C@H](NC(=O)[C@H](CCCCN[C@H]1C[C@@H]1c1ccccc1)NC(=O)[C@H](CO)NC(=O)[C@H](CCCNC(=N)N)NC(=O)[C@@H]1CCCN1)C(=O)N[C@H](C(=O)N[C@@H](CCCNC(=N)N)C(=O)N[C@@H](CCCCN)C(=O)N1CCC[C@H]1C(=O)N[C@@H](CO)C(=O)N[C@@H](CC(=O)O)C(=O)N1CCC[C@H]1C(=O)N[C@@H](CC(N)=O)C(=O)N[C@@H](CCCNC(=N)N)C(=O)N[C@@H](CCCCN)C(=O)N1CCC[C@H]1C(=O)N[C@@H](CC(N)=O)C(=O)N[C@@H](Cc1ccc(O)cc1)C(=O)N[C@@H](CO)C(=O)N[C@@H](CCC(N)=O)C(N)=O)C(C)C					4.20								
CC(C)C[C@H](NC(=O)[C@H](CCCCN)NC(=O)[C@H](CO)NC(=O)[C@@H](CCCNC(=N)N)NC(=O)[C@H]1CCCN1)C(=O)N[C@H](C(=O)N[C@@H](CCCNC(=N)N)C(=O)N[C@@H](CCCCNC(=O)[C@@H](CCCNC(=N)N)NC(=O)[C@@H](CCCNC(=N)N)NC(=O)[C@@H](CCCNC(=N)N)NC(=O)[C@@H](CCCNC(=N)N)NC(=O)[C@@H](CCCNC(=N)N)NC(=O)[C@@H](CCCNC(=N)N)NC(=O)[C@@H](CCCNC(=N)N)NC(=O)[C@@H](N)CCCNC(=N)N)C(=O)N1CCC[C@H]1C(=O)N[C@@H](CO)C(=O)N[C@@H](CC(=O)O)C(=O)N1CCC[C@H]1C(=O)N[C@@H](CC(N)=O)C(=O)N[C@@H](CCCNC(=N)N)C(=O)N[C@@H](CCCCN)C(=O)N1CCC[C@H]1C(=O)N[C@H](CC(N)=O)C(=O)N[C@@H](Cc1ccc(O)cc1)C(=O)N[C@@H](CO)C(=O)N[C@@H](CCC(N)=O)C(N)=O)C(C)C	1.06							inactive					

Further compounds by rising pIC50 [13], results first:

Ratio [2]	pIC50 [4]	Drug metabolism [6]	pIC50 [10]	pIC50 [13]	pIC50 [14]	pIC50 [17]	SMILES	inhibition [1]	Ratio IC50 [3]	Ratio IC50 [11]	Ratio IC50 [16]	Ratio IC50 [21]	other results
				4.77			C#CCN(C)CCC[C@H](NC(=O)[C@H](CO)NC(=O)[C@H](CCCNC(=N)N)NC(=O)[C@@H]1CCCN1)C(=O)N[C@@H](CC(C)C)C(=O)N[C@H](C(=O)N[C@@H](CCCNC(=N)N)C(=O)N[C@@H](CCCCN)C(=O)N1CCC[C@H]1C(=O)N[C@@H](CO)C(=O)N[C@@H](CC(=O)O)C(=O)N1CCC[C@H]1C(=O)N[C@@H](CC(N)=O)C(=O)N[C@@H](CCCNC(=N)N)C(=O)N[C@@H](CCCCN)C(=O)N1CCC[C@H]1C(=O)N[C@@H](CC(N)=O)C(=O)N[C@@H](Cc1ccc(O)cc1)C(=O)N[C@@H](CO)C(=O)N[C@@H](CCC(N)=O)C(N)=O)C(C)C						
1.52	4.52	metabolite_detected	5.12	6.49	5.30	< 4.52	CC(C)C[C@@H](NC(=O)[C@@H](CCCNN)NC(=O)[C@@H](CO)NC(=O)[C@H](CCCNC(=N)N)NC(=O)[C@@H]1CCCN1)C(=O)N[C@@H](C(=O)N[C@H](CCCNC(=N)N)C(=O)N[C@H](CCCCN)C(=O)N1CCC[C@@H]1C(=O)N[C@@H](CO)C(=O)N[C@@H](CC(=O)O)C(=O)N1CCC[C@H]1C(=O)N[C@@H](CC(N)=O)C(=O)N[C@@H](CCCNC(=N)N)C(=O)N[C@H](CCCCNC(=O)[C@H](CCCNC(=N)N)NC(=O)[C@H](CCCNC(=N)N)NC(=O)[C@H](CCCNC(=N)N)NC(=O)[C@H](CCCNC(=N)N)NC(=O)[C@H](CCCNC(=N)N)NC(=O)[C@H](CCCNC(=N)N)NC(=O)[C@H](CCCNC(=N)N)NC(=O)[C@H](N)CCCNC(=N)N)C(=O)N1CCC[C@H]1C(=O)N[C@H](CC(N)=O)C(=O)N[C@@H](Cc1ccc(O)cc1)C(=O)N[C@@H](CO)C(=O)N[C@@H](CCC(N)=O)C(N)=O)C(C)C	Active	94	16	23	> 94	
2.08	4.52	metabolite_detected	4.63	6.54	4.89	< 4.52	CC(C)C[C@@H](NC(=O)[C@@H](CCCNN)NC(=O)[C@@H](CO)NC(=O)[C@@H](CCCNC(=N)N)NC(=O)[C@H]1CCCN1)C(=O)N[C@@H](C(=O)N[C@H](CCCNC(=N)N)C(=O)N[C@@H](CCCCNC(=O)COCCOCCNC(=O)[C@@H](CCCNC(=N)N)NC(=O)[C@@H](CCCNC(=N)N)NC(=O)[C@@H](CCCNC(=N)N)NC(=O)[C@@H](CCCNC(=N)N)NC(=O)[C@@H](CCCNC(=N)N)NC(=O)[C@@H](CCCNC(=N)N)NC(=O)[C@@H](CCCNC(=N)N)NC(=O)[C@@H](N)CCCNC(=N)N)C(=O)N1CCC[C@H]1C(=O)N[C@@H](CO)C(=O)N[C@@H](CC(=O)O)C(=O)N1CCC[C@H]1C(=O)N[C@@H](CC(N)=O)C(=O)N[C@@H](CCCNC(=N)N)C(=O)N[C@@H](CCCCN)C(=O)N1CCC[C@H]1C(=O)N[C@H](CC(N)=O)C(=O)N[C@@H](Cc1ccc(O)cc1)C(=O)N[C@@H](CO)C(=O)N[C@@H](CCC(N)=O)C(N)=O)C(C)C	Active	94	16	23	> 94	Ratio [5]: 0.98; Ratio [7]: 1.29; Ratio [8]: 1.05; inhibition [9]: Dose-dependent effect; Ratio [12]: 0.96; Ratio [15]: 0.99; Ratio [18]: 1.01; Ratio [19]: 1.03; Ratio [20]: 1.73
